From ChEMBL document CHEMBL3885881, “DrugMatrix”

Species: Rattus norvegicus
Assay: DrugMatrix - Regimen: Daily Repeat
Type: toxicity, organism-based, Sprague-Dawley
Parameters: regimen Daily Repeat, gender Male, age 6-8 weeks
Details: in vivo, po, route oral GAVAGE, […]; for ABSOLUTE BASOPHIL / ABSOLUTE EOSINOPHIL / ABSOLUTE LYMPHOCYTE / ABSOLUTE MONOCYTE / ABSOLUTE SEGMENTED NEUTROPHIL / BASOPHIL / EOSINOPHIL / ERYTHROCYTE COUNT / HEMATOCRIT / HEMOGLOBIN / LEUKOCYTE COUNT / LYMPHOCYTE / MEAN CORPUSCULAR HEMOGLOBIN / MEAN CORPUSCULAR HEMOGLOBIN CONCENTRATION / MONOCYTE / NEUTROPHIL / NUCLEATED RED BLOOD CELLS / PLATELET COUNT: tissue Blood; for ALANINE AMINOTRANSFERASE / ALBUMIN / ALKALINE PHOSPHATASE / ASPARTATE AMINOTRANSFERASE / BLOOD UREA NITROGEN / CARBON DIOXIDE / CHLORIDE / CHOLESTEROL / CREATINE PHOSPHOKINASE / CREATININE / GLUCOSE / LACTATE DEHYDROGENASE / LIPASE / PHOSPHORUS / POTASSIUM / SODIUM / TOTAL BILIRUBIN / TOTAL PROTEIN / URIC ACID: tissue Plasma
[1] = 0 mg/kg, 72 h, dose level Control, time 3 day
[2] = 0 mg/kg, 120 h, dose level Control, time 5 day
[3] = 0.2 mg/kg, 72 h, dose level Low, time 3 day

## CCOC(=O)C1=C(COCCN)NC(C)=C(C(=O)OC)C1c1ccccc1Cl (stereo not given) [AMLODIPINE]
[1]
  ABSOLUTE BASOPHIL: 0 CELLS/uL
  ABSOLUTE EOSINOPHIL: 70.67 CELLS/uL
  ABSOLUTE LYMPHOCYTE: 12761.5 CELLS/uL
  ABSOLUTE MONOCYTE: 214.17 CELLS/uL
  ABSOLUTE SEGMENTED NEUTROPHIL: 987 CELLS/uL
  BASOPHIL: 0%
  EOSINOPHIL: 0.5%
  ERYTHROCYTE COUNT: 5.61 x10E6/uL
  HEMATOCRIT: 35.22%
  HEMOGLOBIN: 13.57 G/DL
  LEUKOCYTE COUNT: 14.03 x10E3/uL
  LYMPHOCYTE: 91%
  MEAN CORPUSCULAR HEMOGLOBIN: 24.25 pg
  MEAN CORPUSCULAR HEMOGLOBIN CONCENTRATION: 38.52 G/DL
  MONOCYTE: 1.5%
  NEUTROPHIL: 7%
  NUCLEATED RED BLOOD CELLS: 0 /100WBC
  PLATELET COUNT: 997.5 x10E3/uL
  ALANINE AMINOTRANSFERASE: 66.5 u/L
  ALBUMIN: 3.98 G/DL
  ALKALINE PHOSPHATASE: 350 u/L
  ASPARTATE AMINOTRANSFERASE: 83.83 u/L
  BLOOD UREA NITROGEN: 12.33 mg/dL
  CARBON DIOXIDE: 30.33 mmol/L
  CHLORIDE: 100 MEQ/L
  CHOLESTEROL: 75 mg/dL
  CREATINE PHOSPHOKINASE: 200 u/L
  CREATININE: 0.17 mg/dL
  GLUCOSE: 170 mg/dL
  LACTATE DEHYDROGENASE: 89.33 u/L
  LIPASE: 10.33 u/L
  PHOSPHORUS: 10.88 mg/dL
  POTASSIUM: 6.13 MEQ/L
  SODIUM: 140.53 MEQ/L
  TOTAL BILIRUBIN: 0.2 mg/dL
  TOTAL PROTEIN: 5.67 G/DL
  URIC ACID: 1.6 mg/dL
[2]
  ABSOLUTE BASOPHIL: 0 CELLS/uL
  ABSOLUTE EOSINOPHIL: 0 CELLS/uL
  ABSOLUTE LYMPHOCYTE: 9526.67 CELLS/uL
  ABSOLUTE MONOCYTE: 134.17 CELLS/uL
  ABSOLUTE SEGMENTED NEUTROPHIL: 922.5 CELLS/uL
  BASOPHIL: 0%
  EOSINOPHIL: 0%
  ERYTHROCYTE COUNT: 5.58 x10E6/uL
  HEMATOCRIT: 34.78%
  HEMOGLOBIN: 13.5 G/DL
  LEUKOCYTE COUNT: 10.58 x10E3/uL
  LYMPHOCYTE: 90.17%
  MEAN CORPUSCULAR HEMOGLOBIN: 24.27 pg
  MEAN CORPUSCULAR HEMOGLOBIN CONCENTRATION: 38.82 G/DL
  MONOCYTE: 1.17%
  NEUTROPHIL: 8.67%
  NUCLEATED RED BLOOD CELLS: 0.17 /100WBC
  PLATELET COUNT: 807.17 x10E3/uL
  ALANINE AMINOTRANSFERASE: 66.83 u/L
  ALBUMIN: 3.73 G/DL
  ALKALINE PHOSPHATASE: 286.17 u/L
  ASPARTATE AMINOTRANSFERASE: 142.33 u/L
  BLOOD UREA NITROGEN: 14.67 mg/dL
  CARBON DIOXIDE: 25.5 mmol/L
  CHLORIDE: 89.17 MEQ/L
  CHOLESTEROL: 75.17 mg/dL
  CREATINE PHOSPHOKINASE: 310.67 u/L
  CREATININE: 0.2 mg/dL
  GLUCOSE: 153 mg/dL
  LACTATE DEHYDROGENASE: 1594 u/L
  LIPASE: 14.83 u/L
  PHOSPHORUS: 11.28 mg/dL
  POTASSIUM: 8.46 MEQ/L
  SODIUM: 126.88 MEQ/L
  TOTAL BILIRUBIN: 0.37 mg/dL
  TOTAL PROTEIN: 5.53 G/DL
  URIC ACID: 1.52 mg/dL
[3]
  ABSOLUTE BASOPHIL: 0 CELLS/uL
  ABSOLUTE EOSINOPHIL: 0 CELLS/uL
  ABSOLUTE LYMPHOCYTE: 9376 CELLS/uL
  ABSOLUTE MONOCYTE: 215 CELLS/uL
  ABSOLUTE SEGMENTED NEUTROPHIL: 975.67 CELLS/uL
  BASOPHIL: 0%
  EOSINOPHIL: 0%
  ERYTHROCYTE COUNT: 5.44 x10E6/uL
  HEMATOCRIT: 34.4%
  HEMOGLOBIN: 13.67 G/DL
  LEUKOCYTE COUNT: 10.57 x10E3/uL
  LYMPHOCYTE: 88.67%
  MEAN CORPUSCULAR HEMOGLOBIN: 25.13 pg
  MEAN CORPUSCULAR HEMOGLOBIN CONCENTRATION: 39.73 G/DL
  MONOCYTE: 2%
  NEUTROPHIL: 9.33%
  NUCLEATED RED BLOOD CELLS: 0 /100WBC
  PLATELET COUNT: 1115 x10E3/uL
  ALANINE AMINOTRANSFERASE: 74.33 u/L
  ALBUMIN: 4 G/DL
  ALKALINE PHOSPHATASE: 391 u/L
  ASPARTATE AMINOTRANSFERASE: 107.33 u/L
  BLOOD UREA NITROGEN: 11 mg/dL
  CARBON DIOXIDE: 28.67 mmol/L
  CHLORIDE: 100.67 MEQ/L
  CHOLESTEROL: 69.67 mg/dL
  CREATINE PHOSPHOKINASE: 1227 u/L
  CREATININE: 0.14 mg/dL
  GLUCOSE: 178 mg/dL
  LACTATE DEHYDROGENASE: 183 u/L
  LIPASE: 11 u/L
  PHOSPHORUS: 10.73 mg/dL
  POTASSIUM: 5.94 MEQ/L
  SODIUM: 141 MEQ/L
  TOTAL BILIRUBIN: 0.2 mg/dL
  TOTAL PROTEIN: 5.73 G/DL
